According to patent publication US20160045513A1, “ISOXAZOLE COMPOUND FOR THE TREATMENT OF CANCER” (Novartis AG, priority 2007, published 2016):

Tests used:
BT-474 xenograft = assay: antitumor effect in the human breast cancer model BT-474; format: in vivo, mouse; settings: for T/C (%) / ΔTumor volume (mm^3): qw, i.v., 21 days treatment; for ΔTumor volume (mm^3): mean ±SEM
Procedure: The estrogen receptor positive cell line BT-474 was initially isolated from a human breast ductal carcinoma established from a solid, invasive ductal carcinoma of the breast obtained from a person (ATCC number HTB-20). The cells are grown in DMEM high glucose (4.5 g/l) supplemented with 10% FCS, […] and 1% sodium pyruvate. In preparation for cell inoculation, each mouse is subcutaneously implanted on the upper dorsal side with a 17β-Estradiol pellet (25 μg/day; 90 day release) using a trocar needle. BT-474 cells (5×10̂6) are injected in 200 μl Matrigel:HBSS (1:1 vol) (BD MatrigelTM Basement Membrane Matrix). The injection site is subcutaneously in the right flank. […] Tumor growth is monitored at regular intervals. The xenograft tumor sizes are measured manually with calipers and the tumor volume is estimated using the formula: (W×L×H×π/6), where width (W), height (H) and length (L) are the three largest diameters. Results are presented as mean ±SEM. Tumor data are analyzed by ANOVA with post hoc Dunnet's test for comparison of treatment versus control group. As a measure of efficacy the % T/C value is calculated at the end of the experiment according to: (Δtumor volumetreated/Δtumor volumecontrol)*100 where Δtumor volumes represent the mean tumor volume on the evaluation day minus the mean tumor volume at the start of the experiment. The antitumor effect of AUY922 is evaluated in the BT-474 xenograft model. In this study, the treatment period is 21 days. Each group consists of eight tumor bearing animals. At the end of the study, the tumor sizes in the treatment groups are compared to those of the vehicle treated groups and the effect is expressed as % T/C.

CA20948 xenograft = assay: antitumor effect in the rat pancreatic cancer model CA20948; format: in vivo; settings: for T/C (%) / ΔTumor volume (mm^3): qw; for ΔTumor volume (mm^3): mean ±SEM, *P < 0.05
Procedure: The transplantable rat pancreatic tumor CA20948 is serially passaged as cell homogenates in male syngeneic Lewis rats. The injection site is subcutaneously on the right flank. […] Tumor growth is monitored at regular intervals. The xenograft tumor sizes is measured manually with calipers and the tumor volume is estimated using the formula: (W×L^2×π/6), where width (W) and height (H) are the two largest diameters. Results are presented as mean ±SEM. Tumor data were analyzed by ANOVA with post hoc Dunnet's test for comparison of treatment versus control group. As a measure of efficacy the % T/C value is calculated at the end of the experiment according to: (Δtumor volumetreated/Δtumor volumecontrol)*100 where Δtumor volumes represent the mean tumor volume on the evaluation day minus the mean tumor volume at the start of the experiment. The antitumor effect of AUY922 is evaluated in the CA20948 xenograft model. Each group consisted of six tumor bearing animals. At the end of the study, the tumor sizes in the treatment groups are compared to those of the vehicle treated groups and the effect is expressed as % T/C.

LXFE 1422 = assay: clonogenic assay, human tumor xenografts in vitro; format: cell-based; settings: Lung, non-small cell, LXFE 1422, Squamous cell carcinoma, soft agar, read-out: IC50 (nM), colony formation
Procedure: (§1) The anticancer activity of 5-(2,4-Dihydroxy-5-isopropyl-phenyl)-4-(4-morpholin-4-ylmethyl-phenyl)-isoxazole-3-carboxylic acid ethylamide is evaluated in 30 human tumor xenografts in vitro using a clonogenic assay. In this assay, human cells derived from cancer patients are evaluated for the capacity of 5-(2,4-Dihydroxy-5-isopropyl-phenyl)-4-(4-morpholin-4-ylmethyl-phenyl)-isoxazole-3-carboxylic acid ethylamide to inhibit the formation of 3 dimensional colonies. […] The tumor xenografts which have never been cultured in cell culture plastic dishes are isolated from nude mice. Tumor cell suspensions are prepared and incubated in 24 well plates containing layers of soft agar. Under these conditions a special subpopulation of cells selectively grows to colonies. 5-(2,4-Dihydroxy-5-isopropyl-phenyl)-4-(4-morpholin-4-ylmethyl-phenyl)-isoxazole-3-carboxylic acid ethylamide was tested in 6 concentrations up to […]. The tumor test panel comprises 1 to 6 models of 10 different human tumor or cancer types, which were bladder cancer, colon, liver, non small cell lung (adeno, squamous epithelium and large cell), small cell lung, mammary, ovary, pancreatic, melanoma and pleuramesothelioma. Antitumor effects are recorded as inhibition of colony formation in relation to untreated controls. Further information on the method has been published (Burger et al., 2004; Fiebig et al., 2004; Smith et al., 2005).
(§2) The cells are continually exposed to 5-(2,4-Dihydroxy-5-isopropyl-phenyl)-4-(4-morpholin-4-ylmethyl-phenyl)-isoxazole-3-carboxylic acid ethylamide and colony formation is determined.

OVXF 1353 = assay: clonogenic assay, human tumor xenografts in vitro; format: cell-based; settings: Ovary, OVXF 1353, Adeno carcinoma, soft agar, read-out: IC50 (nM), colony formation
Procedure: as §1, §2

MEXF 989 = assay: clonogenic assay, human tumor xenografts in vitro; format: cell-based; settings: Melanoma, MEXF 989, Amelanotic melanoma, soft agar, read-out: IC50 (nM), colony formation
Procedure: as §1, §2

PAXF 1657 = assay: clonogenic assay, human tumor xenografts in vitro; format: cell-based; settings: Pancreas, PAXF 1657, Adeno carcinoma, soft agar, read-out: IC50 (nM), colony formation
Procedure: as §1, §2

CXF 609 = assay: clonogenic assay, human tumor xenografts in vitro; format: cell-based; settings: Colon, CXF 609, Adeno carcinoma, soft agar, read-out: IC50 (nM), colony formation
Procedure: as §1, §2

LXFA 297 = assay: clonogenic assay, human tumor xenografts in vitro; format: cell-based; settings: Lung, non-small cell, LXFA 297, Adeno carcinoma, soft agar, read-out: IC50 (nM), colony formation
Procedure: as §1, §2

MEXF 462 = assay: clonogenic assay, human tumor xenografts in vitro; format: cell-based; settings: Melanoma, MEXF 462, Amelanotic melanoma, soft agar, read-out: IC50 (nM), colony formation
Procedure: as §1, §2

LXFA 526 = assay: clonogenic assay, human tumor xenografts in vitro; format: cell-based; settings: Lung, non-small cell, LXFA 526, Adeno carcinoma, soft agar, read-out: IC50 (nM), colony formation
Procedure: as §1, §2

CXF 158 = assay: clonogenic assay, human tumor xenografts in vitro; format: cell-based; settings: CXF158, Colon, CXF 158, Adeno carcinoma, soft agar, read-out: IC50 (nM), colony formation
Procedure: as §1, §2

MEXF 535 = assay: clonogenic assay, human tumor xenografts in vitro; format: cell-based; settings: Melanoma, MEXF 535, Amelanotic melanoma, soft agar, read-out: IC50 (nM), colony formation
Procedure: as §1, §2

PXF 1118 = assay: clonogenic assay, human tumor xenografts in vitro; format: cell-based; settings: Pleuramesothelioma, PXF 1118, Biphasic pleuramesothelioma, soft agar, read-out: IC50 (nM), colony formation
Procedure: as §1, §2

- IC50 (LXFE 1422): 48 nM
- IC50 (OVXF 1353): 26 nM
- IC50 (MEXF 989): 2 nM
- IC50 (PAXF 1657): 39 nM
- IC50 (CXF 609): 55 nM
- IC50 (LXFA 297): 28 nM
- IC50 (MEXF 462): 24 nM
- IC50 (LXFA 526): 5 nM
- IC50 (CXF 158): 369 nM
- IC50 (MEXF 535): 43 nM
- IC50 (PXF 1118): 223 nM
SMILES: CCNC(=O)c1noc(-c2cc(C(C)C)c(O)cc2O)c1-c1ccc(CN2CCOCC2)cc1 [AUY922, 5-(2,4-Dihydroxy-5-isopropyl-phenyl)-4-(4-morpholin-4-ylmethyl-phenyl)-isoxazole-3-carboxylic acid ethylamide]
- T/C (%) (BT-474 xenograft; 8.3 mg/kg): 43%
- ΔTumor volume (mm^3) (BT-474 xenograft; 8.3 mg/kg): 229 ± 73 mm^3
- T/C (%) (BT-474 xenograft; 17 mg/kg): 9%
- ΔTumor volume (mm^3) (BT-474 xenograft; 17 mg/kg, *P < 0.05): 46 ± 27* mm^3
- T/C (%) (BT-474 xenograft; 25 mg/kg): 3%
- ΔTumor volume (mm^3) (BT-474 xenograft; 25 mg/kg, *P < 0.05): 15 ± 23* mm^3
- reduction of tumor sizes versus vehicle (BT-474 xenograft; once per week at 17-25 mg/kg): Statistically significant reduction of tumor sizes
- T/C (%) (CA20948 xenograft; 50 mg/kg, i.v.): 30%
- ΔTumor volume (mm^3) (CA20948 xenograft; 50 mg/kg, i.v.): 7090 ± 2553* mm^3
- T/C (%) (CA20948 xenograft; 75 mg/kg, i.v): 21%
- ΔTumor volume (mm^3) (CA20948 xenograft; 75 mg/kg, i.v): 4796 ± 1354* mm^3
- reduction of tumor sizes versus vehicle (CA20948 xenograft; once per week at 50 and 75 mg/kg): Statistically significant reduction of tumor sizes
